Measured values as given in patent US4169015A, “Novel chromogenic thrombin substrates” (AB Kabi, priority 1975, dated 1979).
In brackets after ≈: the same amount, converted by molar mass. Read-outs that look alike come from different tables or passages of the source. Where a SMILES comes first, the peptide text is derived from it. The star is where a group is joined. pNA = O=[N+]([O-])c1ccc(N*)cc1; Bz = O=C(c1ccccc1)*

Columns and labels:
thrombin = experiment: Relative reaction velocity between thrombin and chromogenic substrate (p-nitroaniline release, 405 nm); type: biochemical; details: for Rel. reaction velocity: thrombin 0.4 NIH/ml, substrate 0.1 μmol/ml, relative, S-2160 = 100
From the text: The substrates prepared according to the examples are used for determination of thrombin as stated below.
The determination principle is based upon the fact that the splitting product formed by enzymatic hydrolysis has a UV-spectrum which is essentially different from that of the substrate. Thus, the substrate according to Example X, H--D--Phe--Pip--Arg--pNA, has an absorption maximum at 315 nm and the molar extinction coefficient of 12500. At 405 nm the absorption of the substrate has almost completely stopped. p-Nitroaniline, split off from the substrate during the enzymatic hydrolysis, has an absorption maximum at 380 nm and a molar extinction coefficient of 13200 which at 405 nm only had decreased to 9620. By spectrophotometrical determination at 405 nm it is thus possible to easily follow the amount of p-nitroaniline formed, which is proportional to the degree of the enzymatic hydrolysis which in its turn is determined by the active amount of thrombin. For other substrates according to the invention rather identical conditions exist and for this reason the determinations have consistently been made at 405 nm.
They react 4 times more rapidly with thrombin than the previously best substrate, S-2160, and are further about 10 times more soluble in water than S-2160.
Relative reactions velocity between thrombin (0.4 NIH/ml) and substrate (0.1 μmol/ml).

Solubility in water = type: physicochemical
[1] = water, Table I, in H2O, read-out: Solubility in H2O

| SMILES | Rel. reaction velocity (thrombin) | decrease of the velocity with which thrombin splits the substrate (thrombin; versus S-2160 (benzoyl replaced with H)) | solubility (Solubility in water; [1]) [µg/mL] | solubility (Solubility in water; medium not stated, read-out: solubility) [µg/mL] | solubility compared with S-2160 (in words) (Solubility in water; versus S-2160) |
| --- | --- | --- | --- | --- | --- |
| CC(C)[C@H](NC(=O)[C@@H](N)Cc1ccccc1)C(=O)N[C@@H](CCCNC(=N)N)C(=O)Nc1ccc([N+](=O)[O-])cc1 [B, H-Phe-Val-Arg-pNA, reference compound] (H-Phe-Val-Arg-pNA) | 3 | about 30 times | 1000 (≈ 1850 µM) | – | – |
| CC(C)[C@H](NC(=O)[C@H](Cc1ccccc1)NC(=O)c1ccccc1)C(=O)N[C@@H](CCCNC(=N)N)C(=O)Nc1ccc([N+](=O)[O-])cc1 [Example S-2160, Bz-Phe-Val-Arg-pNA, reference compound] (Bz-Phe-Val-Arg-pNA) | 100 | – | 100 (≈ 155 µM) | 1000 (≈ 1550 µM) | considerably more soluble |
| N=C(N)NCCC[C@H](NC(=O)[C@@H]1CCCCN1C(=O)[C@H](N)Cc1ccccc1)C(=O)Nc1ccc([N+](=O)[O-])cc1 [Example X, H--D--Phe--Pip--Arg--pNA.2HCl] | 420 | – | 3000 | – | – |
| N=C(N)NCCC[C@H](NC(=O)[C@@H]1CCCN1C(=O)[C@@H](N)Cc1ccccc1)C(=O)Nc1ccc([N+](=O)[O-])cc1 [IX, H--Phe--Pro--Arg--pNA.2HCl] | 15 | – | 1000 | – | – |
| N=C(N)NCCC[C@H](NC(=O)[C@@H]1CCCN1C(=O)[C@H](N)Cc1ccccc1)C(=O)Nc1ccc([N+](=O)[O-])cc1 [VIII, H--D--Phe--Pro--Arg--pNA.2HCl] | 400 | – | 3000 | – | – |
| N=C(N)NCCC[C@H](NC(=O)[C@@H]1CCCCN1C(=O)[C@@H](N)Cc1ccccc1)C(=O)Nc1ccc([N+](=O)[O-])cc1 [XI, H--Phe--Pip--Arg--pNA.2HCl] | 9 | – | 1000 | – | – |
